Columns and labels:
SULT1A3 [1] = molecular target: T1, SULT1A3 (Homo sapiens, UniProt P0DMM9); assay: Equilibrium binding of PAP to SULT1A3 complexes (intrinsic fluorescence)
T1 construct: E. coli–optimized SULT coding regions were inserted into a pGEX-6P expression vector; N-His/GST/MBP triple tag (PreScission-cleavable) (N, cleaved yes); made in house; host or cells: E. coli BL21(DE3)
Method: CMP13 binding to SULT1A3 was monitored via binding-induced changes in SULT1A3 intrinsic fluorescence (λex= 290 nm, λem= 335 nm ([17])). […] PAP binding was determined using the same protocol except that [PAP] was varied and CMP13 was 1.0 μM (100 × Ki). Titrations were performed in triplicate. Data were averaged and least-squares fit using a model that assumes a single binding site per monomer.

SULT1A3 [2] = molecular target: T1, SULT1A3; assay: Pre-steady-state (stopped-flow fluorescence) binding of PAP to SULT1A3 complexes; settings: for Kd: read-out: Kd (koff/kon)
Description: Figure 4 The inhibition mechanism. A, equilibrium binding. Binding was monitored via ligand-induced changes in SULT1A3 intrinsic fluorescence (λex = 290 nm, λem = 335 nm). […] Each dot represents the average of three independent titrations. Lines passing through the data represent the outcomes predicted by least-squares fitting of the averaged data to a single-binding-site model. B, representative PAP-binding reaction. PAP binding was monitored using a stopped-flow fluorimeter (λex = 290 nm, λem ≥ 330 nm (cutoff filter)). Reactions were initiated by rapidly mixing (1:1 v/v) a solution containing SULT1A3 (30 nM, dimer), CMP13 (1.0 μM, 100 × Kd), Tam (160 μM, 200 × Kd), KPO4 (50 mM), pH 7.5, 25(±2) °C, with a solution that was identical except that it lacked SULT1A3 and contained PAP (2.0 μM). The average of five independent progress curves shown and the kobs was obtained by fitting the data to a single exponential. C, pre–steady-state binding. PAP binding was monitored as described for panel B. Reactions were initiated by mixing (1:1 v/v) a solution containing SULT1A3 (30 nM, dimer), CMP13 [0 μM (black dots) or 1.0 μM, 100 × Kd (red and blue dots)], Tam [0 μM (black and blue dots) or 160 μM, 200 × Kd (red dots)], KPO4 (50 mM), pH 7.5, 25(±2) °C, with a solution that was identical except that it lacked SULT1A3 and contained PAP at twice the indicated concentrations. Each kobs value was determined in triplicate, and the averaged values are shown. kon and koff are given, respectively, by the slopes and intercepts obtained from linear least-squares fitting of the kobs vs [PAP] plot. PAP, 3′-phosphoadenosine-5′-phosphate; SULT1A3, sulfotransferase 1A3; Tam, 4-hydroxy-tamoxifen.
To resolve this uncertainty, PAP on- and off-rate constants for a series of open and closed complexes were determined using stopped-flow fluorescence. A representative binding reaction can be seen in Fig. 4B. The binding reactions were pseudo-first order in [PAP], and kobs values were obtained by fitting reaction progress curves to a single-exponential equation. On- and off-rate constants (see Table 3) are given by the plot slopes and intercepts.
Pre–steady-state binding of PAP to SULT1A3 was monitored via ligand-induced changes in SULT1A3 fluorescence using an Applied Photophysics SX20 stopped-flow spectrofluorometer. Fluorescence was measured at λex = 290 nm and λem ≥ 330 nm (using a cutoff filter). […] All reactions were pseudo first order with respect to [PAP]. kobs values, determined in triplicate at each PAP concentration, were obtained by least-squares fitting the average of five progress curves to a single-exponential equation. kon and koff, obtained by linear least-squares fitting, are given by the slopes and intercepts of four-point kobs-vs-[PAP] plots.

SULT1A3 [3] = molecular target: T1, SULT1A3; set-up: method as in PMID 30545938; settings: saturating inhibitor, cited from earlier work
[4] = PAP binding to complex E·CMP13, CMP13 1.0 μM
[5] = PAP binding to complex E·CMP13·Tam
[6] = PAP binding to complex E·CMP13·Tam, CMP13 1.0 μM, Tam 160 μM

T1 sequence (P0DMM9 whole entry): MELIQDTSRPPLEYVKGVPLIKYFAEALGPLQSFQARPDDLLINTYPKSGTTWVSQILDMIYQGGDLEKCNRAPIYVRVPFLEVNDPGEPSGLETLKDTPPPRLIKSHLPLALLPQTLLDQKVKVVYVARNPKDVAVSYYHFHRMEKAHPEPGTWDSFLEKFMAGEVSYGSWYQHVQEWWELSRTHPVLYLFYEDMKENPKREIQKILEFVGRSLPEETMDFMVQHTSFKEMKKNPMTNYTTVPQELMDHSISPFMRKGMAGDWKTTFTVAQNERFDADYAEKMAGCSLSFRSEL

| Kd (SULT1A3 [1]; PAP binding to complex E) | Kd (SULT1A3 [1]; [4]) | Kd (SULT1A3 [1]; [5]) | koff (SULT1A3 [2]; PAP binding to complex E) | kon (SULT1A3 [2]; PAP binding to complex E) | Kd (SULT1A3 [2]; PAP binding to complex E) | koff (SULT1A3 [2]; [4]) | kon (SULT1A3 [2]; [4]) | Kd (SULT1A3 [2]; PAP binding to complex E·CMP13) | koff (SULT1A3 [2]; [6]) | kon (SULT1A3 [2]; [6]) | Kd (SULT1A3 [2]; [5]) | Compound | % Inhibition at saturation (SULT1A3 [3]; in vitro) | factor by which SULT1A3 turnover is reduced at saturation (SULT1A3 [3]) | turnover at saturation as % of that seen in absence of inhibitor (SULT1A3 [3]) |
| --- | --- | --- | --- | --- | --- | --- | --- | --- | --- | --- | --- | --- | --- | --- | --- |
| 320 nM | 31 nM | 350 nM | 2.5 s⁻¹ | 6.9e+06 M⁻¹ s⁻¹ | 360 nM | 0.18 s⁻¹ | 6.6e+06 M⁻¹ s⁻¹ | 29 nM | 2.3 s⁻¹ | 6.5e+06 M⁻¹ s⁻¹ | 350 nM | Nc1ncnc2c1ncn2[C@@H]1O[C@H](COP(=O)(O)O)[C@@H](OP(=O)(O)O)[C@H]1O [PAP, 3′-phosphoadenosine-5′-phosphate] | – | – | – |
| – | – | – | – | – | – | – | – | – | – | – | – | CC(C)Cc1ccc2cc(CO)ccc2n1 [CMP8] | 54 (3) % | 2 | 46% |
